Data on four compounds can be found in publication PMC10675132, “Novel Coumarin Derivatives as Potential Urease Inhibitors for Kidney Stone Prevention and Antiulcer Therapy: From Synthesis to In Vivo Evaluation” (Pharmaceuticals, 2023).

The target in this assay is jack bean urease (Canavalia ensiformis, UniProt P07374). Briefly: indophenol urease inhibition assay ([…] nm). Type of assay: biochemical.

Like-named read-outs stand apart in the source and are kept apart here.

Sequence of jack bean urease (P07374 whole entry, looked up): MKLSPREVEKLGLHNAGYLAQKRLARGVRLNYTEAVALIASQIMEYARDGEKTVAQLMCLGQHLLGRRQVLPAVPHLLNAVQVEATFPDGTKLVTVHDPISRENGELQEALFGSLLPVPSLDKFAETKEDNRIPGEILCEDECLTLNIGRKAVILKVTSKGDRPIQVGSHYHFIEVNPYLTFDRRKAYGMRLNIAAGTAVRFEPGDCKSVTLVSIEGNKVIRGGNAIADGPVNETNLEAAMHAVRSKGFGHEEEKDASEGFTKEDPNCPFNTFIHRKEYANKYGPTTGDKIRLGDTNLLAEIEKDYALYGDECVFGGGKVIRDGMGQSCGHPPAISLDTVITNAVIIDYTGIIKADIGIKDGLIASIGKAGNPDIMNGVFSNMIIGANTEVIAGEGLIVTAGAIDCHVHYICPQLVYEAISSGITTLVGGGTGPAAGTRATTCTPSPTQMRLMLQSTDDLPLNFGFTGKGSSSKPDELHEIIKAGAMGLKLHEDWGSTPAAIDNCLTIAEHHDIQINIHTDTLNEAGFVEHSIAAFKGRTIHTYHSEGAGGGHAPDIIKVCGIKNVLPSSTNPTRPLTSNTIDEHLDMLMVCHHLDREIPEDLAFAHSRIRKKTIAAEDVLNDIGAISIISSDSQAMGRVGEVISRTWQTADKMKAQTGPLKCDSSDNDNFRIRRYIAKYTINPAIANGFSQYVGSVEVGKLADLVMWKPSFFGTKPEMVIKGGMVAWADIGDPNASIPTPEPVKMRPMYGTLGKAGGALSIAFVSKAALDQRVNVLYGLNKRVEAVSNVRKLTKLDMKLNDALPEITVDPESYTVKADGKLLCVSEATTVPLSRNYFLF

In turn, `O=c1cc(/N=C/c2cccc([N+](=O)[O-])c2)c2ccccc2o1` [3a, (E)-4-(3-nitrobenzylideneamino)-2H-chromen-2-one] yielded an IC50 of 412 nM. `O=c1cc(/N=C/c2ccc([N+](=O)[O-])cc2)c2ccccc2o1` [5a, (E)-4-(4-nitrobenzylideneamino)-2H-chromen-2-one] displayed an IC50 of 322 nM.

On to `Cc1ccc(O)c(/C=N/c2cc(=O)oc3ccccc23)c1` [7a, (E)-4-(2-hydroxy-5-methylbenzylideneamino)-2H-chromen-2-one], for which the 50% inhibitory concentration (IC50) is 112 nM. Regarding `NC(N)=S` [Thiourea, reference compound], under “read-out: IC50 ± SEM”, the IC50 turned out to be 140 nM.

What is called IC50 is the concentration that gives 50% inhibition.
